Biological target: human NaV 1.8 (Homo sapiens, UniProt Q9Y5Y9)
Assay: E-VIPR assay for detecting and measuring NaV inhibition properties
Assay type: cell-based
Conditions: E-VIPR assay conducted in the presence of human serum; HEK cells expressing truncated human NaV 1.8
Method in brief: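 Membrane-potential (coumarin/oxonol) readout after 10 s of 10 Hz biphasic electrical stimulation on E-VIPR. Compounds: 11-point 3-fold dilutions, […], 0.625% DMSO, 30 min at room temperature, human serum optional. Cells: HEK expressing truncated human NaV1.8 co-transduced with KIR2.1.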

Chain of human NaV 1.8 (Q9Y5Y9 whole entry, looked up): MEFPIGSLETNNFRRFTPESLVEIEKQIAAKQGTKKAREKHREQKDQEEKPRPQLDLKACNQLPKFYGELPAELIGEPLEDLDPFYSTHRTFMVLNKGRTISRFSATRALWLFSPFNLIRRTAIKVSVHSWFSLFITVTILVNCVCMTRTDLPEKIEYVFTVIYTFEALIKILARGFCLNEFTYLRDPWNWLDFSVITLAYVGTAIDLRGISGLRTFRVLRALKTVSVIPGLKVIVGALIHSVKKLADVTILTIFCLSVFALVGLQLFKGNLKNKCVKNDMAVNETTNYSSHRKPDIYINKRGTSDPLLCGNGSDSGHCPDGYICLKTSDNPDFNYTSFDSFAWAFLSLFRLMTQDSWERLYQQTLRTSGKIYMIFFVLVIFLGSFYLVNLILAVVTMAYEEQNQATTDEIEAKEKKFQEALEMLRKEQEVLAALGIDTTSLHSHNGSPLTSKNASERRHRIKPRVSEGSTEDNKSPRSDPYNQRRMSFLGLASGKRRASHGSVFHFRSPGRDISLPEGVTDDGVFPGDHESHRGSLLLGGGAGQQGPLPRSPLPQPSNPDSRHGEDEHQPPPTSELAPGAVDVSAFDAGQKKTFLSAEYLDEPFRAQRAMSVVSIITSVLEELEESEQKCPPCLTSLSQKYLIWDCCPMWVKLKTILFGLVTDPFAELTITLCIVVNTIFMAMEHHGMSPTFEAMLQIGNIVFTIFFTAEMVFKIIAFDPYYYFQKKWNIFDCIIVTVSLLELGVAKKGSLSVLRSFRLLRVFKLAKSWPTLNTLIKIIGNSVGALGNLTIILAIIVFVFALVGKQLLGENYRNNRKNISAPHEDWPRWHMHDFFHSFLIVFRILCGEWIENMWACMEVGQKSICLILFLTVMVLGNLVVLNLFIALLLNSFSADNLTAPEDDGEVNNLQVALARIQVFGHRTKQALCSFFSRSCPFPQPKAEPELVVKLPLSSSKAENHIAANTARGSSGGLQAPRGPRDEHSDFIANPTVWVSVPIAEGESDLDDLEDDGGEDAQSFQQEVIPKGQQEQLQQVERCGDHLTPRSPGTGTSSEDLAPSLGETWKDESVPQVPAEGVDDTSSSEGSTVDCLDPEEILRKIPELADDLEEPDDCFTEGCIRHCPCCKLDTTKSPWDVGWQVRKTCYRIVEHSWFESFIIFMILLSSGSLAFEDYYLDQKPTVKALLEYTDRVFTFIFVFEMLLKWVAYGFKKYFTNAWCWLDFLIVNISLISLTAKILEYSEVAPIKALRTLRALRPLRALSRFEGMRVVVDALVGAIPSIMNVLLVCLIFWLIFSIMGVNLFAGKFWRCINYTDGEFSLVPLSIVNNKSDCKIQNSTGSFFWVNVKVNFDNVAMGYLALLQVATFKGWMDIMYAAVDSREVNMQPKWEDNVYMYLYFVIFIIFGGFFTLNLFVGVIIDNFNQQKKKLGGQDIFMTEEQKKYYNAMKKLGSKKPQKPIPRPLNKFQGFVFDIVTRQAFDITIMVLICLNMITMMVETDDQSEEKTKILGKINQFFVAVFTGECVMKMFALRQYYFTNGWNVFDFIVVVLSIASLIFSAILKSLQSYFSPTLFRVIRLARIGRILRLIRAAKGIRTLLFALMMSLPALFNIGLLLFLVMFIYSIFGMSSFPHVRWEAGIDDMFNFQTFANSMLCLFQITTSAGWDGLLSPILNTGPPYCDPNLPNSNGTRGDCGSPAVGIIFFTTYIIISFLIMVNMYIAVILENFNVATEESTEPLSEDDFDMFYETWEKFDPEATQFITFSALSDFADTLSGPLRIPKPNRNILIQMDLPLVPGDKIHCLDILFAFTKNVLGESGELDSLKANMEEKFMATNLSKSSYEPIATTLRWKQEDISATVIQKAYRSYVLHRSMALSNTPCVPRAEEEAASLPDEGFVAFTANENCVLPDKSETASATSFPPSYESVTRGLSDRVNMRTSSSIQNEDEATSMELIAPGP

Molecule `Cc1c(Oc2ccc(C(F)(F)F)c(C)c2C(=O)Nc2ccc(C(N)=O)nc2)ccc(OC(F)(F)F)c1F` [Compound 289, 5-[[6-[3-Fluoro-2-Methyl-4-(Trifluoromethoxy)Phenoxy]-2-Methyl-3-(Trifluoromethyl)Benzoyl]Amino]Pyridine-2-Carboxamide] has an IC50 of 0.039 µM.

Same assay, conditions: E-VIPR assay conducted in the presence of human serum; HEK cells expressing truncated human NaV 1.8; read-out: IC50

In order of falling IC50:
1. CNC(=O)c1cc(NC(=O)c2c(Oc3ccc(F)c(F)c3OC)cc(OC)c(C(F)(F)F)c2NC)ccn1 [Compound 300, 4-[[6-(3,4-Difluoro-2-Methoxy-Phenoxy)-4-Methoxy-2-(Methylamino)-3-(Trifluoromethyl)Benzoyl]Amino]-N-Methyl-Pyridine-2-Carboxamide]  1.4 µM
2. Cc1c(C2CC2)ccc(Oc2ccc(OC(F)(F)F)cc2Cl)c1C(=O)Nc1ccc(C(N)=O)nc1 [Compound 287, 5-[[6-[2-Chloro-4-(Trifluoromethoxy)Phenoxy]-3-Cyclopropyl-2-Methyl-Benzoyl]Amino]Pyridine-2-Carboxamide]  0.59 µM
3. COc1cc(OC(F)(F)F)ccc1Oc1cc(C(F)(F)F)c(OC)cc1C(=O)Nc1ccnc(C(N)=O)c1 [Compound 276, 4-[[5-Methoxy-2-[2-Methoxy-4-(Trifluoromethoxy)Phenoxy]-4-(Trifluoromethyl)Benzoyl]Amino]Pyridine-2-Carboxamide]  0.44 µM
4. COc1c(Oc2cnc(C(F)(F)F)c(OC)c2C(=O)Nc2cc(C(N)=O)ncc2C)ccc(F)c1F [Compound 302, N-(2-carbamoyl-5-methyl-4-pyridyl)-5-(3,4-difluoro-2-methoxy-phenoxy)-3-methoxy-2-(trifluoromethyl)pyridine-4-carboxamide]  0.28 µM
5. COc1cc(OC(F)(F)F)ccc1Oc1cc(C(F)(F)F)c(OC)nc1C(=O)Nc1ccnc(C(N)=O)c1 [Compound 275, N-(2-Carbamoyl-4-Pyridyl)-6-Methoxy-3-[2-Methoxy-4-(Trifluoromethoxy)Phenoxy]-5-(Trifluoromethyl)Pyridine-2-Carboxamide]  0.17 µM
6. COc1cc(OC(F)(F)F)ccc1Oc1cc(C(F)(F)F)cc(OC)c1C(=O)Nc1ccnc(C(N)=O)c1 [Compound 277, 4-[[2-Methoxy-6-[2-Methoxy-4-(Trifluoromethoxy)Phenoxy]-4-(Trifluoromethyl)Benzoyl]Amino]Pyridine-2-Carboxamide]  0.17 µM
7. COc1cc(OC(F)(F)F)ccc1Oc1ccc(C(F)(F)F)c(C2CC2)c1C(=O)Nc1ccnc(C(N)=O)c1 [Compound 281, 4-[[2-Cyclopropyl-6-[2-Methoxy-4-(Trifluoromethoxy)Phenoxy]-3-(Trifluoromethyl)Benzoyl]Amino]Pyridine-2-Carboxamide]  0.13 µM
8. NC(=O)c1ccc(NC(=O)c2c(Oc3ccc(OC(F)(F)F)c(F)c3Cl)ccc(C(F)(F)F)c2F)cn1 [Compound 297, 5-[[6-[2-Chloro-3-Fluoro-4-(Trifluoromethoxy)Phenoxy]-2-Fluoro-3-(Trifluoromethyl)Benzoyl]Amino]Pyridine-2-Carboxamide]  0.074 µM
9. COc1cc(OC(F)(F)F)ccc1Oc1cc(C2CC2)c(C(F)(F)F)nc1C(=O)Nc1ccnc(C(N)=O)c1 [Compound 282, N-(2-Carbamoyl-4-Pyridyl)-5-Cyclopropyl-3-[2-Methoxy-4-(Trifluoromethoxy)Phenoxy]-6-(Trifluoromethyl)Pyridine-2-Carboxamide]  0.057 µM
10. Cc1c(Oc2ccc(C(F)(F)F)c(F)c2C(=O)Nc2ccc(C(N)=O)nc2)ccc(OC(F)(F)F)c1F [Compound 292, 5-[[2-Fluoro-6-[3-Fluoro-2-Methyl-4-(Trifluoromethoxy)Phenoxy]-3-(Trifluoromethyl)Benzoyl]Amino]Pyridine-2-Carboxamide]  0.0545 µM
11. COc1c(Oc2ccc(F)c(F)c2C(=O)Nc2cc(C(N)=O)ncc2C)ccc(OC(F)(F)F)c1F [Compound 304, 4-[[2,3-difluoro-6-[3-fluoro-2-methoxy-4-(trifluoromethoxy)phenoxy]benzoyl]amino]-5-methyl-pyridine-2-carboxamide]  0.054 µM
12. Cc1cnc(C(N)=O)cc1NC(=O)c1c(Oc2ccc(OC(F)(F)F)cc2C)ccc(C(F)(F)F)c1F [Compound 285, 4-[[2-Fluoro-6-[2-Methyl-4-(Trifluoromethoxy)Phenoxy]-3-(Trifluoromethyl)Benzoyl]Amino]-5-Methyl-Pyridine-2-Carboxamide]  0.026 µM
13. Cc1cnc(C(N)=O)cc1NC(=O)c1c(Oc2ccc(OC(F)(F)F)c(F)c2Cl)ccc(C(F)(F)F)c1F [Compound 296, 4-[[6-[2-Chloro-3-Fluoro-4-(Trifluoromethoxy)Phenoxy]-2-Fluoro-3-(Trifluoromethyl)Benzoyl]Amino]-5-Methyl-Pyridine-2-Carboxamide]  0.0246 µM
14. CNC(=O)c1cc(NC(=O)c2c(Oc3ccc(F)c(F)c3OC)cc(OC)c(C(F)(F)F)c2F)ccn1 [Compound 301, 4-[[6-(3,4-Difluoro-2-Methoxy-Phenoxy)-2-Fluoro-4-Methoxy-3-(Trifluoromethyl)Benzoyl]Amino]-N-Methyl-Pyridine-2-Carboxamide]  0.022 µM
15. Cc1cnc(C(N)=O)cc1NC(=O)c1c(Oc2ccc(OC(F)(F)F)c(F)c2C)ccc(C(F)(F)F)c1C [Compound 288, 4-[[6-[3-Fluoro-2-Methyl-4-(Trifluoromethoxy)Phenoxy]-2-Methyl-3-(Trifluoromethyl)Benzoyl]Amino]-5-Methyl-Pyridine-2-Carboxamide]  0.0203 µM
16. COc1cc(OC(F)(F)F)ccc1Oc1cc(C(F)(F)F)c(F)cc1C(=O)Nc1cc[n+]([O-])c(C(N)=O)c1 [Compound 279, 4-[[5-Fluoro-2-[2-Methoxy-4-(Trifluoromethoxy)Phenoxy]-4-(Trifluoromethyl)Benzoyl]Amino]-1-Oxido-Pyridin-1-Ium-2-Carboxamide]  0.019 µM
17. COc1c(Oc2ccc(F)c(F)c2C(=O)Nc2ccnc(C(N)=O)c2)ccc(OC(F)(F)F)c1F [Compound 303, 4-[[2,3-difluoro-6-[3-fluoro-2-methoxy-4-(trifluoromethoxy)phenoxy]benzoyl]amino]pyridine-2-carboxamide]  0.019 µM
18. Cc1cc(OC(F)(F)F)ccc1Oc1ccc(Cl)c(F)c1C(=O)Nc1ccnc(C(N)=O)c1 [Compound 286, 4-[[3-Chloro-2-Fluoro-6-[2-Methyl-4-(Trifluoromethoxy)Phenoxy]Benzoyl]Amino]Pyridine-2-Carboxamide]  0.014 µM
19. Cc1cnc(C(N)=O)cc1NC(=O)c1c(Oc2ccc(OC(F)(F)F)c(F)c2C)ccc(C(F)(F)F)c1F [Compound 291, 4-[[2-Fluoro-6-[3-Fluoro-2-Methyl-4-(Trifluoromethoxy)Phenoxy]-3-(Trifluoromethyl)Benzoyl]Amino]-5-Methyl-Pyridine-2-Carboxamide]  0.0128 µM
20. Cc1c(Oc2ccc(C(F)(F)F)c(C)c2C(=O)Nc2ccnc(C(N)=O)c2)ccc(OC(F)(F)F)c1F [Compound 290, 4-[[6-[3-Fluoro-2-Methyl-4-(Trifluoromethoxy)Phenoxy]-2-Methyl-3-(Trifluoromethyl)Benzoyl]Amino]Pyridine-2-Carboxamide]  0.0099 µM
21. NC(=O)c1cc(NC(=O)c2c(Oc3ccc(OC(F)(F)F)c(F)c3Cl)ccc(C(F)(F)F)c2F)ccn1 [Compound 298, 4-[[6-[2-Chloro-3-Fluoro-4-(Trifluoromethoxy)Phenoxy]-2-Fluoro-3-(Trifluoromethyl)Benzoyl]Amino]Pyridine-2-Carboxamide]  0.0098 µM
22. Cc1c(Oc2ccc(OC(F)(F)F)c(F)c2C(=O)Nc2ccnc(C(N)=O)c2)ccc(OC(F)(F)F)c1F [Compound 294, 4-[[2-Fluoro-6-[3-Fluoro-2-Methyl-4-(Trifluoromethoxy)Phenoxy]-3-(Trifluoromethoxy)Benzoyl]Amino]Pyridine-2-Carboxamide]  0.0068 µM
23. Cc1c(Oc2ccc(Cl)c(F)c2C(=O)Nc2ccnc(C(N)=O)c2)ccc(OC(F)(F)F)c1F [Compound 295, 4-[[3-Chloro-2-Fluoro-6-[3-Fluoro-2-Methyl-4-(Trifluoromethoxy)Phenoxy]Benzoyl]Amino]Pyridine-2-Carboxamide]  0.0065 µM
24. COc1cc(Oc2ccc(F)c(F)c2OC)c(C(=O)Nc2ccnc(C(N)=O)c2)c(F)c1C(F)(F)F [Compound 299, 4-[[6-(3,4-Difluoro-2-Methoxy-Phenoxy)-2-Fluoro-4-Methoxy-3-(Trifluoromethyl)Benzoyl]Amino]Pyridine-2-Carboxamide]  0.0064 µM
25. COc1cc(OC(F)(F)F)ccc1Oc1cc(OC)c(C(F)(F)F)c(C)c1C(=O)Nc1ccnc(C(N)=O)c1 [Compound 283, 4-[[4-Methoxy-6-[2-Methoxy-4-(Trifluoromethoxy)Phenoxy]-2-Methyl-3-(Trifluoromethyl)Benzoyl]Amino]Pyridine-2-Carboxamide]  0.0042 µM
26. COc1cc(OC(F)(F)F)ccc1Oc1ccc(OC(F)(F)F)c(F)c1C(=O)Nc1ccnc(C(N)=O)c1 [Compound 280, 4-[[2-Fluoro-6-[2-Methoxy-4-(Trifluoromethoxy)Phenoxy]-3-(Trifluoromethoxy)Benzoyl]Amino]Pyridine-2-Carboxamide]  0.004 µM
27. COc1cc(OC(F)(F)F)ccc1Oc1cc(C(F)(F)F)c(OC)c(F)c1C(=O)Nc1ccnc(C(N)=O)c1 [Compound 284, 4-[[2-Fluoro-3-Methoxy-6-[2-Methoxy-4-(Trifluoromethoxy)Phenoxy]-4-(Trifluoromethyl)Benzoyl]Amino]Pyridine-2-Carboxamide]  0.004 µM
28. Cc1c(Oc2ccc(C(F)(F)F)c(F)c2C(=O)Nc2ccnc(C(N)=O)c2)ccc(OC(F)(F)F)c1F [Compound 293, 4-[[2-Fluoro-6-[3-Fluoro-2-Methyl-4-(Trifluoromethoxy)Phenoxy]-3-(Trifluoromethyl)Benzoyl]Amino]Pyridine-2-Carboxamide]  0.0039 µM
29. COc1cc(OC(F)(F)F)ccc1Oc1cc(C(F)(F)F)c(C)c(F)c1C(=O)Nc1ccnc(C(N)=O)c1 [Compound 278, 4-[[2-Fluoro-6-[2-Methoxy-4-(Trifluoromethoxy)Phenoxy]-3-Methyl-4-(Trifluoromethyl)Benzoyl]Amino]Pyridine-2-Carboxamide]  0.0036 µM

Source: US12441703B2, “Carboxamides as modulators of sodium channels” (VERTEX PHARMACEUTICALS INCORPORATED, priority 2019, dated 2025)
